ChEMBL document CHEMBL2321867, “Synthesis and structure-activity relationships of 2-hydrazinyladenosine derivatives as A(2A) adenosine receptor ligands” (Bioorg Med Chem, 2013)

Assays:
Adenosine receptor A2a [1] = target: Adenosine receptor A2a (Rattus norvegicus, UniProt P30543); test: Displacement of [3H]CGS21680 from adenosine A2A receptor in rat brain striatal membrane after 60 mins by liquid scintillation counting analysis; type: cell membranes
[2] = target: Adenosine receptor A2a (Rattus norvegicus) (UniProt P30543); test: Displacement of [3H]CGS21680 from adenosine A2A receptor in rat brain striatal membrane at 1 uM after 60 mins by liquid scintillation counting analysis; type: cell membranes
Adenosine receptor A3 [3] = target: T1, Adenosine receptor A3 (Homo sapiens, UniProt P0DMS8); test: Displacement of [3H]NECA from human recombinant adenosine A3 receptor expressed in CHO cells after 180 mins by liquid scintillation counting analysis; type: cell-based
T1 sequence (P0DMS8 whole entry): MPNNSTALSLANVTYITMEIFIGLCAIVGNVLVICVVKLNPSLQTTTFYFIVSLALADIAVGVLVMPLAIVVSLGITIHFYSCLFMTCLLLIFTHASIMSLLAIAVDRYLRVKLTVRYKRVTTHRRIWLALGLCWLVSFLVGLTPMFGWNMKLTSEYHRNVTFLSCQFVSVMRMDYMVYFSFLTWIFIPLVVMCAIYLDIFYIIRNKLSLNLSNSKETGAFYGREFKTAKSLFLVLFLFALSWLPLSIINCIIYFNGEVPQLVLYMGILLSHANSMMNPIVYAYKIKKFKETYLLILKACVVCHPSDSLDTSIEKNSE

Adenosine receptor A1 [4] = target: T2, Adenosine receptor A1 (Rattus norvegicus, UniProt P25099); test: Displacement of [3H]CCPA from adenosine A1 receptor in rat brain cortical membrane after 90 mins by liquid scintillation counting analysis; type: cell membranes
T2 sequence (P25099 whole entry): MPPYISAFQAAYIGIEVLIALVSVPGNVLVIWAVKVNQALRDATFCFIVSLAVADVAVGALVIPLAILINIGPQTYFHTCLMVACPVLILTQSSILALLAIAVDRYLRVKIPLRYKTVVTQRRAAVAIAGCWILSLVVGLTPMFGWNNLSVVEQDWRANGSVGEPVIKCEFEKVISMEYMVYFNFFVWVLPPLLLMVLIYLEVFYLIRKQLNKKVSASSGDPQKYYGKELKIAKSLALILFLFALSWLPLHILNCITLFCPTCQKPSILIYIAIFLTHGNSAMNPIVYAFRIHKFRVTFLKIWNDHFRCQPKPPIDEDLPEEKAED

[5] = target: T3, Adenosine receptor A1 (Rattus norvegicus) (UniProt P25099); test: Displacement of [3H]CCPA from adenosine A1 receptor in rat brain cortical membrane at 1 uM after 90 mins by liquid scintillation counting analysis; type: cell membranes
T3 sequence (whole entry): T2 sequence (P25099 whole entry)

[6] = target: T4, Adenosine receptor A3 (Homo sapiens) (UniProt P0DMS8); test: Displacement of [3H]NECA from human recombinant adenosine A3 receptor expressed in CHO cells at 1 uM after 180 mins by liquid scintillation counting analysis; type: cell-based
T4 sequence (whole entry): T1 sequence (P0DMS8 whole entry)

Adenosine receptor A2a [7] = target: Adenosine receptor A2a (Homo sapiens, UniProt P29274); test: Agonist activity at human recombinant adenosine A2A receptor expressed in CHO cells assessed as [3H]cAMP accumulation after 15 mins by liquid scintillation counting; type: functional, cell-based
Adenosine receptor A3 [8] = target: T1, Adenosine receptor A3; test: Displacement of [3H]NECA from human recombinant adenosine A3 receptor
[9] = target: T5, Adenosine receptor A2b (Homo sapiens) (UniProt P29275); test: Displacement of [3H]PSB-603 from human recombinant adenosine A2B receptor expressed in CHO cells at 10 uM after 75 mins by liquid scintillation counting analysis; type: cell-based
T5 sequence (whole entry): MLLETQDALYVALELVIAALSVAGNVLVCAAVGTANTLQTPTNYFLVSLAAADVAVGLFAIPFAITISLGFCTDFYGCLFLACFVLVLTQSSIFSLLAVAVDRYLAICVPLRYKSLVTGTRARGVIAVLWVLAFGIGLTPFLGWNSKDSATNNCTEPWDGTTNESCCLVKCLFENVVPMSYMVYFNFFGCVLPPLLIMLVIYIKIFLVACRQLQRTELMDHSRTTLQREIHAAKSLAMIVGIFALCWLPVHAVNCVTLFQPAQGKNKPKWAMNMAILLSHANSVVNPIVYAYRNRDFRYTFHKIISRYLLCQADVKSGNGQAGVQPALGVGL

Adenosine receptor A1 [10] = target: T6, Adenosine receptor A1 (Homo sapiens, UniProt P30542)
T6 sequence (P30542 whole entry): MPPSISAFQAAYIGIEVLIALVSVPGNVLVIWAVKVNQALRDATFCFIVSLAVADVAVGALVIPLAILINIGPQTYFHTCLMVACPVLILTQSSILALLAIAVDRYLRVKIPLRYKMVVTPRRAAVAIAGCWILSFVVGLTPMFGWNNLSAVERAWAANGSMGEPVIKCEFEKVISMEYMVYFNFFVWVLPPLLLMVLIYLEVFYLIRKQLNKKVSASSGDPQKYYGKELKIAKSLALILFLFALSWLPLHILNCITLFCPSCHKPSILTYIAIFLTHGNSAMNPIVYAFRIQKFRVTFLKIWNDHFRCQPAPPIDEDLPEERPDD

Adenosine receptor A1 [11] = target: T6, Adenosine receptor A1; test: Displacement of [3H]CCPA from human recombinant adenosine A1 receptor expressed in CHO cells 90 mins by liquid scintillation counting analysis; type: cell-based

Sequence of Adenosine receptor A2a (Rattus norvegicus) (P30543 whole entry): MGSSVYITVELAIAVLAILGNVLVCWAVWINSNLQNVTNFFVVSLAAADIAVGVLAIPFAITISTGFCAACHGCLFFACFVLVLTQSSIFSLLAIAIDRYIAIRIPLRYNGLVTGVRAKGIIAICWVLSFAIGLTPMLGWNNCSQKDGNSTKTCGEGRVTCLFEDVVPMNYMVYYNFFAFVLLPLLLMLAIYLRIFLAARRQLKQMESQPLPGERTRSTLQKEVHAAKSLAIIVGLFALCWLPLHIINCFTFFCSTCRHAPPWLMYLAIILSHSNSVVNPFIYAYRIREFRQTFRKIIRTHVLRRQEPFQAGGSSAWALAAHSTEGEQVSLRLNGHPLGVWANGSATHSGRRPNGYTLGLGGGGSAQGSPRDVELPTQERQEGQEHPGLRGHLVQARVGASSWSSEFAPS
Sequence of Adenosine receptor A2a (Rattus norvegicus, UniProt P30543) (P30543 whole entry): as above
Sequence of Adenosine receptor A2a (Homo sapiens, UniProt P29274) (P29274 whole entry): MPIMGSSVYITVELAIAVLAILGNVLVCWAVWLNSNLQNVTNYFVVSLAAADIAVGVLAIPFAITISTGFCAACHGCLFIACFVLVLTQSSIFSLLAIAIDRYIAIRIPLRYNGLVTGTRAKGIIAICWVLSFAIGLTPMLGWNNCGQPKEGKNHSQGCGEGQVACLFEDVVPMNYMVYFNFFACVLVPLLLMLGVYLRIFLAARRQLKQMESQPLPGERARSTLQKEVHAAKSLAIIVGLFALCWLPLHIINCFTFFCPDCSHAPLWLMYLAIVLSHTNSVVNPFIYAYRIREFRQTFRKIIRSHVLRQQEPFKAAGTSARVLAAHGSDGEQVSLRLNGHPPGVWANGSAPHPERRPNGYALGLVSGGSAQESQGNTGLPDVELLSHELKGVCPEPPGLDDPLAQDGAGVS

Ki (Adenosine receptor A2a [1]) | inhibition [2] | SMILES | further results
> 1 µM | 7% | CN(/N=C/[C@@H](O)[C@@H](O)[C@@H](O)CO)c1nc(N)c2ncn([C@@H]3O[C@H](CO)[C@@H](O)[C@H]3O)c2n1 | –
> 1 µM | 16% | CN(NC(=S)Nc1ccccc1)c1nc(N)c2ncn([C@@H]3O[C@H](CO)[C@@H](O)[C@H]3O)c2n1 | Ki (Adenosine receptor A3 [3]): > 1 µM; Ki (Adenosine receptor A1 [4]): > 1 µM; inhibition [5]: 1%; inhibition [6]: 36%
0.0161 µM | – | Nc1nc(N/N=C/c2ccc(Cl)cc2)nc2c1ncn2[C@@H]1O[C@H](CO)[C@@H](O)[C@H]1O | –
0.329 µM | – | Nc1nc(N/N=C/[C@@H](O)[C@H](O)[C@H](O)[C@@H](O)CO)nc2c1ncn2[C@@H]1O[C@H](CO)[C@@H](O)[C@H]1O | EC50 (Adenosine receptor A2a [7]): 1.44 µM
> 1 µM | 33% | Nc1nc(N/N=C/[C@H](O)[C@H](O)[C@@H](O)[C@@H](O)CO)nc2c1ncn2[C@@H]1O[C@H](CO)[C@@H](O)[C@H]1O | –
> 1 µM | 34% | Nc1nc(N/N=C(\CO)[C@H](O)[C@@H](O)[C@@H](O)CO)nc2c1ncn2[C@@H]1O[C@H](CO)[C@@H](O)[C@H]1O | –
> 1 µM | 31% | CN(/N=C/[C@@H](O)[C@H](O)[C@@H](O)[C@@H](O)CO)c1nc(N)c2ncn([C@@H]3O[C@H](CO)[C@@H](O)[C@H]3O)c2n1 | –
> 1 µM | 11% | CN(NC(=O)Nc1ccccc1)c1nc(N)c2ncn([C@@H]3O[C@H](CO)[C@@H](O)[C@H]3O)c2n1 | –
> 1 µM | 2% | CN(/N=C/[C@H](O)[C@H](O)[C@@H](O)[C@@H](O)CO)c1nc(N)c2ncn([C@@H]3O[C@H](CO)[C@@H](O)[C@H]3O)c2n1 | –
0.0917 µM | – | Nc1nc(N/N=C/c2ccc(Cl)cc2O)nc2c1ncn2[C@@H]1O[C@H](CO)[C@@H](O)[C@H]1O | –
0.0244 µM | – | Nc1nc(N/N=C/c2ccc(Cl)c(Cl)c2)nc2c1ncn2[C@@H]1O[C@H](CO)[C@@H](O)[C@H]1O | EC50 (Adenosine receptor A2a [7]): 1.66 µM
0.0255 µM | – | Nc1nc(N/N=C/C2CCCCC2)nc2c1ncn2[C@@H]1O[C@H](CO)[C@@H](O)[C@H]1O [BINODENOSON] | Ki (Adenosine receptor A3 [8]): 0.903 µM; Ki (Adenosine receptor A3 [3]): 0.0526 µM; inhibition [9]: 17%; Ki (Adenosine receptor A1 [4]): 0.0708 µM; Ki (Adenosine receptor A1 [10]): 48 µM; Ki (Adenosine receptor A1 [11]): 0.169 µM
> 1 µM | 33% | Nc1nc(N/N=C/[C@@H](O)[C@@H](O)[C@@H](O)CO)nc2c1ncn2[C@@H]1O[C@H](CO)[C@@H](O)[C@H]1O | –
> 1 µM | 25% | CN(/N=C/[C@H](O)[C@@H](O)[C@@H](O)[C@H](O)CO)c1nc(N)c2ncn([C@@H]3O[C@H](CO)[C@@H](O)[C@H]3O)c2n1 | –
> 1 µM | 25% | CN(/N=C(\CO)[C@H](O)[C@@H](O)[C@@H](O)CO)c1nc(N)c2ncn([C@@H]3O[C@H](CO)[C@@H](O)[C@H]3O)c2n1 | –
0.012 µM | – | COc1ccc(/C=N/Nc2nc(N)c3ncn([C@@H]4O[C@H](CO)[C@@H](O)[C@H]4O)c3n2)cc1 | Ki (Adenosine receptor A1 [11]): 0.723 µM
> 1 µM | 42% | Nc1nc(N/N=C/[C@@H](O)[C@H](O)[C@@H](O)[C@@H](O)CO)nc2c1ncn2[C@@H]1O[C@H](CO)[C@@H](O)[C@H]1O | –
